Converted amounts (≈) assume the structure as drawn.
How the values were obtained:
Pseudomonas aeruginosa [1] = experiment: Antibacterial activity against Pseudomonas aeruginosa clinical isolate AG033; assay type: functional
Pseudomonas aeruginosa [2] = experiment: Antibacterial activity against Pseudomonas aeruginosa clinical isolate AG032; assay type: functional
Staphylococcus aureus [3] = experiment: Antibacterial activity against methicillin-resistant Staphylococcus aureus clinical isolate AG042 harboring with ANT4',4\" gene; assay type: functional
Staphylococcus aureus [4] = experiment: Antibacterial activity against methicillin-resistant Staphylococcus aureus clinical isolate AG038; assay type: functional
Staphylococcus aureus [5] = experiment: Antibacterial activity against methicillin-resistant Staphylococcus aureus clinical isolate AG039; assay type: functional
[6] = test system: human cytoplasmic ribosome (Cyt 14 hybrid); experiment: Selectivity ratio of IC50 for inhibition of human cytoplasmic ribosome Cyt 14 hybridized with Mycobacterium smegmatis ribosomes to IC50 for inhibition of Mycobacterium smegmatis wild type ribosomes; assay type: toxicity; settings: read-out: Ratio IC50
[7] = test system: human mitochondrial ribosome A1555G mutant (Mit 13 A1555G hybrid); experiment: Selectivity ratio of IC50 for inhibition of human mitochondrial ribosome Mit 13 A1555G mutant hybridized with Mycobacterium smegmatis ribosomes to IC50 for inhibition of Mycobacterium smegmatis wild type ribosomes; assay type: toxicity; settings: read-out: Ratio IC50
[8] = test system: human mitochondrial ribosome (Mit 13 hybrid); experiment: Selectivity ratio of IC50 for inhibition of human mitochondrial ribosome Mit 13 hybridized with Mycobacterium smegmatis ribosome to IC50 for inhibition of Mycobacterium smegmatis wild type ribosomes; assay type: toxicity; settings: read-out: Ratio IC50
[9] = Inhibition of human mitochondrial ribosome Mit 13 A1555G mutant hybridized with Mycobacterium smegmatis ribosome assessed as inhibition of translation activity using Firefly luciferase mRNA reporter based luminescence analysis
[10] = Inhibition of human cytoplasmic ribosome Cyt 14 hybridized with Mycobacterium smegmatis ribosome assessed as inhibition of translation activity using Firefly luciferase mRNA reporter based luminescence analysis
[11] = Inhibition of human mitochondrial ribosome Mit 13 hybridized with Mycobacterium smegmatis ribosome assessed as inhibition of translation activity using Firefly luciferase mRNA reporter based luminescence analysis
Bacterial 70S ribosome = experiment: Inhibition of Mycobacterium smegmatis wild type ribosomes assessed as inhibition of translation activity using Firefly luciferase mRNA reporter based luminescence analysis; assay type: subcellular, Mycolicibacterium smegmatis
Pseudomonas aeruginosa [12] = experiment: Antibacterial activity against Pseudomonas aeruginosa clinical isolate AG031; assay type: functional
Escherichia coli [13] = experiment: Antibacterial activity against Escherichia coli clinical isolate AG003; assay type: functional
Escherichia coli [14] = experiment: Antibacterial activity against Escherichia coli clinical isolate AG055; assay type: functional
Escherichia coli [15] = experiment: Antibacterial activity against Escherichia coli clinical isolate AG001; assay type: functional

| SMILES | MIC (Pseudomonas aeruginosa [1]) [µg/mL] | MIC (Pseudomonas aeruginosa [2]) [µg/mL] | MIC (Staphylococcus aureus [3]) [µg/mL] | MIC (Staphylococcus aureus [4]) [µg/mL] | MIC (Staphylococcus aureus [5]) [µg/mL] | selectivity ratio [6] | selectivity ratio [7] | selectivity ratio [8] | IC50 [9] [µM] | IC50 [10] [µM] | IC50 [11] [µM] | IC50 (Bacterial 70S ribosome) [µM] | MIC (Pseudomonas aeruginosa [12]) [µg/mL] | MIC (Escherichia coli [13]) [µg/mL] | MIC (Escherichia coli [14]) [µg/mL] | MIC (Escherichia coli [15]) [µg/mL] |
| --- | --- | --- | --- | --- | --- | --- | --- | --- | --- | --- | --- | --- | --- | --- | --- | --- |
| CCN[C@@H]1C[C@H](N)[C@@H](O[C@H]2OC(CN)=C(SCC)C[C@H]2N)[C@H](O)[C@H]1O[C@H]1OC[C@](C)(O)[C@H](NC)[C@H]1O | > 128 | 128 (≈ 239 µM) | 128 (≈ 239 µM) | 32 (≈ 59.7 µM) | 32 (≈ 59.7 µM) | 1160 | 69 | 381 | 46 | 783 | 256 | 0.67 | > 128 | 8 to 16 (≈ 14.9 to 29.9 µM) | 8 to 16 (≈ 14.9 to 29.9 µM) | 16 (≈ 29.9 µM) |
| CCS[C@H]1[C@H](O)[C@@H](N)[C@@H](O[C@H]2[C@H](O[C@@H]3O[C@H](CO)[C@@H](O[C@H]4O[C@@H](CN)[C@@H](O)[C@H](O)[C@H]4N)[C@H]3O)[C@@H](O)[C@H](N)C[C@@H]2N)O[C@@H]1CO | – | – | – | – | – | 1960 | 1430 | 3130 | 76 | 104 | 166 | 0.053 | – | – | – | – |
| CCC[C@H]1[C@H](O)[C@@H](N)[C@@H](O[C@H]2[C@H](O[C@@H]3O[C@H](CO)[C@@H](O[C@H]4O[C@@H](CN)[C@@H](O)[C@H](O)[C@H]4N)[C@H]3O)[C@@H](O)[C@H](N)C[C@@H]2N)O[C@@H]1CO | – | – | – | – | – | 2060 | 1680 | 5390 | 52 | 64 | 167 | 0.031 | – | – | – | – |
| CCN[C@@H]1C[C@H](N)[C@@H](O[C@H]2OC(CN)=C(I)C[C@H]2N)[C@H](O)[C@H]1O[C@H]1OC[C@](C)(O)[C@H](NC)[C@H]1O | > 128 | 4 to 8 (≈ 6.65 to 13.3 µM) | 64 (≈ 106 µM) | 4 to 8 (≈ 6.65 to 13.3 µM) | 16 (≈ 26.6 µM) | 2210 | 15 | 490 | 1.5 | 221 | 49 | 0.1 | 4 to 8 (≈ 6.65 to 13.3 µM) | 16 (≈ 26.6 µM) | 1 to 2 (≈ 1.66 to 3.33 µM) | 2 (≈ 3.33 µM) |
| CCN[C@@H]1C[C@H](N)[C@@H](O[C@H]2OC(CN)=C(Cl)C[C@H]2N)[C@H](O)[C@H]1O[C@H]1OC[C@](C)(O)[C@H](NC)[C@H]1O | > 128 | 64 (≈ 125 µM) | 32 (≈ 62.7 µM) | 4 (≈ 7.84 µM) | 8 (≈ 15.7 µM) | > 5000 | 15 | 580 | 1.5 | > 500 | 58 | 0.1 | 4 (≈ 7.84 µM) | 16 to 32 (≈ 31.4 to 62.7 µM) | 2 to 4 (≈ 3.92 to 7.84 µM) | 4 (≈ 7.84 µM) |
| CCN[C@@H]1C[C@H](N)[C@@H](O[C@H]2OC(CN)=C(Br)C[C@H]2N)[C@H](O)[C@H]1O[C@H]1OC[C@](C)(O)[C@H](NC)[C@H]1O | 64 (≈ 115 µM) | 8 (≈ 14.4 µM) | 64 (≈ 115 µM) | 4 (≈ 7.21 µM) | 8 to 16 (≈ 14.4 to 28.9 µM) | 1460 | 12 | 520 | 1.2 | 146 | 52 | 0.1 | 8 (≈ 14.4 µM) | 16 (≈ 28.9 µM) | 1 to 2 (≈ 1.8 to 3.61 µM) | 2 (≈ 3.61 µM) |
| CCN[C@@H]1C[C@H](N)[C@@H](O[C@H]2OC(CN)=C(c3ccccc3)C[C@H]2N)[C@H](O)[C@H]1O[C@H]1OC[C@](C)(O)[C@H](NC)[C@H]1O | > 64 | 16 to 32 (≈ 29 to 58 µM) | 64 (≈ 116 µM) | 8 (≈ 14.5 µM) | 16 (≈ 29 µM) | 299 | 13 | 106 | 3.5 | 81 | 29 | 0.27 | 16 to 32 (≈ 29 to 58 µM) | 64 (≈ 116 µM) | 2 (≈ 3.63 µM) | 4 (≈ 7.25 µM) |
| CCCCC1=C(CN)O[C@H](O[C@H]2[C@H](O)[C@@H](O[C@H]3OC[C@](C)(O)[C@H](NC)[C@H]3O)[C@H](NCC)C[C@@H]2N)[C@H](N)C1 | > 128 | 64 (≈ 120 µM) | 64 (≈ 120 µM) | 16 (≈ 30.1 µM) | 16 (≈ 30.1 µM) | 1610 | 37 | 699 | 22 | 940 | 408 | 0.58 | 64 (≈ 120 µM) | 8 to 16 (≈ 15 to 30.1 µM) | 5 (≈ 9.4 µM) | 8 to 16 (≈ 15 to 30.1 µM) |
| CCN[C@@H]1C[C@H](N)[C@@H](O[C@H]2OC(CN)=CC[C@H]2N)[C@H](O)[C@H]1O[C@H]1OC[C@](C)(O)[C@H](NC)[C@H]1O [NETILMICIN] | > 128 | 2 (≈ 4.21 µM) | 2 (≈ 4.21 µM) | 0.5 (≈ 1.05 µM) | 0.5 (≈ 1.05 µM) | 3450 | 35 | 1400 | 0.7 | 69 | 28 | 0.02 | 2 (≈ 4.21 µM) | 8 (≈ 16.8 µM) | 2 (≈ 4.21 µM) | 2 (≈ 4.21 µM) |
| NC[C@@H]1O[C@H](O[C@H]2[C@@H](O)[C@H](O[C@@H]3[C@@H](O)[C@H](N)C[C@H](N)[C@H]3O[C@H]3O[C@H](CO)[C@@H](O)[C@H](O)[C@H]3N)O[C@@H]2CO)[C@H](N)[C@@H](O)[C@@H]1O [PAROMOMYCIN] | – | – | – | – | – | 816 | 315 | 3740 | 12 | 31 | 142 | 0.038 | – | – | – | – |
